Reference: patent US20220160714A1, “METHODS FOR TREATING COLORECTAL CANCER” (ICAHN SCHOOL OF MEDICINE AT MOUNT SINAI, priority 2019, published 2022)
Structures can show the parent of a compound that is named as a salt.

Tested on: patient's personalized Drosophila model 006.1
Test: Trametinib combination drug screen (Table 4B, experimental pupae numbers)
Assay type: in vivo
Experimental: After food was solidified, a mixture of experimental and control embryos (at a 1:2 ratio based on expected Mendelian ratios) were aliquoted into each drug/food tube (15 μl/tube). […] Embryos for drug screening were generated from the following cross in cages: w/Y; UAS-006.1; UAS ago^RNAi UAS-apc^RNAi/Stub-gal80-T Xw UAS-dicer2; +; byn-gal4 UAS-GFP tub-gal80^ts/TM6, Hu, Tb. Embryos were obtained from each cage for 4-5 consecutive days by providing daily a fresh apple juice plate with yeast paste. Egg lays were performed at 22° C. to minimize transgene expression during embryogenesis to prevent embryonic defects or lethality that could not potentially be rescued by drug feeding. After embryos were aliquoted, drug tubes were transferred to 25° C. to induce transgene expression. After 2 weeks, the number of surviving experimental pupae (EP) were counted in each tube.
DMSO and Trametinib alone served as controls. […] Statistical analysis was performed as described above.

[1] = drug screened in combination with trametinib
[2] = drug screened in combination with trametinib, mean of 8 replicates

Compound | EP (raw experimental pupae numbers), replicate 1 [1] | EP (raw experimental pupae numbers), replicate 2 [1] | EP (raw experimental pupae numbers), replicate 3 [1] | EP (raw experimental pupae numbers), replicate 4 [1] | EP (raw experimental pupae numbers), replicate 5 [1] | EP (raw experimental pupae numbers), replicate 6 [1] | EP (raw experimental pupae numbers), replicate 7 [1] | EP (raw experimental pupae numbers), replicate 8 [1] | EP mean [2] | EP mean (in vivo) | EP (raw experimental pupae numbers), replicate 1 (in vivo) | EP (raw experimental pupae numbers), replicate 2 (in vivo) | EP (raw experimental pupae numbers), replicate 3 (in vivo) | EP (raw experimental pupae numbers), replicate 4 (in vivo) | EP (raw experimental pupae numbers), replicate 5 (in vivo) | EP (raw experimental pupae numbers), replicate 6 (in vivo) | EP (raw experimental pupae numbers), replicate 7 (in vivo) | EP (raw experimental pupae numbers), replicate 8 (in vivo)
O=C1CCc2ccc(OCCCCN3CCN(c4cccc(Cl)c4Cl)CC3)cc2N1 [aripiprazole] | 0 | 0 | 1 | 0 | 0 | 2 | 1 | 2 | 0.75 |  |  |  |  |  |  |  |  | 
CN1[C@@H]2CC[C@H]1C[C@@H](OC(c1ccccc1)c1ccccc1)C2 [benztropine] | 0 | 0 | 4 | 2 | 3 | 1 | 0 | 3 | 1.652 |  |  |  |  |  |  |  |  | 
O=c1ccc2ccc(OCCCCN3CCN(c4cccc5sccc45)CC3)cc2[nH]1 [brexpiprazole] | 0 | 0 | 1 | 1 | 2 | 0 | 3 | 1 | 1 |  |  |  |  |  |  |  |  | 
CCC[C@@H]1CC(=O)N([C@@H](CC)C(N)=O)C1 [brivaracetam] | 0 | 0 | 2 | 0 | 2 | 1 | 1 | 1 |  | 0.875 |  |  |  |  |  |  |  | 
CCN(CC)CCNC(C(=O)OCCC(C)C)c1ccccc1 (stereo not drawn) [camylofine dihydrochloride] | 0 | 0 | 1 | 0 | 6 | 1 | 0 | 0 | 1 |  |  |  |  |  |  |  |  | 
CN(C)C(=O)N[C@H]1CC[C@H](CCN2CCN(c3cccc(Cl)c3Cl)CC2)CC1 [cariprazine hydrochloride] | 2 | 0 | 0 | 2 | 2 | 0 | 0 | 3 | 1.125 |  |  |  |  |  |  |  |  | 
CN(C)CCCN1c2ccccc2Sc2ccc(Cl)cc21.Cl [chloipromazine HCl] | 0 | 1 | 1 | 1 | 1 | 2 | 0 | 3 |  | 1.125 |  |  |  |  |  |  |  | 
C[C@H](CCC(=O)O)[C@H]1CC[C@H]2[C@@H]3[C@H](O)C[C@@H]4C[C@H](O)CC[C@]4(C)[C@H]3C[C@H](O)[C@]12C [cholic acid] |  |  |  |  |  |  |  |  |  | 1.375 | 1 | 0 | 2 | 1 | 1 | 1 | 3 | 2
CN1CCN(C2=Nc3cc(Cl)ccc3Nc3ccccc32)CC1 [clozapine] | 1 | 0 | 0 | 0 | 3 | 2 | 1 | 2 | 1.125 |  |  |  |  |  |  |  |  | 
O=C(c1ccc(F)c(F)c1Nc1ccc(I)cc1F)N1CC(O)([C@@H]2CCCCN2)C1 [cobimetinib] | 1 | 1 | 2 | 0 | 1 | 0 | 0 | 0 | 0.625 |  |  |  |  |  |  |  |  | 
CN1CCC(=C2c3ccccc3C=Cc3ccccc32)CC1 [cyproheptadine HCl] | 0 | 0 | 0 | 0 | 3 | 0 | 1 | 3 | 0.875 |  |  |  |  |  |  |  |  | 
CCOc1ccc(Cc2cc([C@@H]3O[C@H](CO)[C@@H](O)[C@H](O)[C@H]3O)ccc2Cl)cc1 [dapagliflozin] | 0 | 1 | 1 | 1 | 3 | 5 | 2 | 0 | 1.625 |  |  |  |  |  |  |  |  | 
OC[C@H]1O[C@@H](c2ccc(Cl)c(Cc3ccc(O[C@H]4CCOC4)cc3)c2)[C@H](O)[C@@H](O)[C@@H]1O [empagliflozin] | 4 | 0 | 0 | 2 | 5 | 2 | 1 | 2 | 2 |  |  |  |  |  |  |  |  | 
NC(N)=Nc1nc(CSCCC(N)=NS(N)(=O)=O)cs1 [famotidine] | 0 | 0 | 0 | 0 | 1 | 2 | 0 | 2 |  | 0.625 |  |  |  |  |  |  |  | 
O=c1[nH]c2ccccc2n1CCN1CCN(c2cccc(C(F)(F)F)c2)CC1 [flibanserin] | 0 | 0 | 3 | 0 | 0 | 0 | 1 | 0 | 0.5 |  |  |  |  |  |  |  |  | 
CNCCC(Oc1ccc(C(F)(F)F)cc1)c1ccccc1 (stereo not drawn) [fluoxetine] | 2 | 2 | 0 | 0 | 7 | 1 | 0 | 1 |  | 1.625 |  |  |  |  |  |  |  | 
CC(C)n1c(/C=C/C(O)CC(O)CC(=O)O)c(-c2ccc(F)cc2)c2ccccc21 (stereo not drawn) [fluvastatin] | 0 | 0 | 0 | 0 | 0 | 0 | 0 | 2 | 0.25 |  |  |  |  |  |  |  |  | 
Cc1ccc(C)c(OCCCC(C)(C)C(=O)O)c1 [gemfibrozil] | 0 | 1 | 0 | 0 | 3 | 0 | 0 | 0 | 0.5 |  |  |  |  |  |  |  |  | 
O=C(CCCN1CCC(O)(c2ccc(Cl)cc2)CC1)c1ccc(F)cc1 [haloperidol] | 0 | 0 | 2 | 2 | 2 | 1 | 1 | 1 | 1.125 |  |  |  |  |  |  |  |  | 
CC1Cc2ccccc2N1NC(=O)c1ccc(Cl)c(S(N)(=O)=O)c1 (stereo not drawn) [indapamide] | 0 | 0 | 1 | 0 | 2 | 2 | 0 | 4 | 1.125 |  |  |  |  |  |  |  |  | 
